B1: BDNF: polypeptide growth factor, administered conjointly with bone marrow cells in a cited study (Chen et al. 2000) (protein, UniProt P23560 19-247, looked up)
Neurotrophic factor BDNF …: APMKEANIRGQGGLAYPGVRTHGTLESVNGPKAGSRGLTSLADTFEHVIEELLDEDQKVRPNEENNKDADLYTSRVMLSSQVPLEPPLLFLLEEYKNYLDAANMSMRVRRHSDPARRGELSVCDSISEWVTAADKKTAVDMSGGTVTVLEKVPVSKGQLKQYFYETKCNPMGYTKEGCRGIDKRHWNSQCRTTQSYVRALTMDSKKRIGWRFIRIDTSCVCTLTIKRGR

Assays:
[1] = test system: rat stroke model (focal cerebral infarction, middle cerebral artery electrocoagulation); assay: Example 1: sensorimotor behavioural tests after intracisternal treatment in rat stroke model; format: in vivo
Method: In this example, fetal mouse neural stem cells (NSC) with or without basic fibroblast growth factor (bFGF) were administered intracisternally in a model of stroke recovery in rats. Male Sprague-Dawley rats, 300-350 grams, were handled for one week before surgery. They received an antibiotic, cefazolin sodium (40 mg/kg, i.p.), one day before stroke surgery. On the day of stroke surgery, animals were anesthetized by 2% halothane in a […]/oxygen mixture (2:1). Focal cerebral infarction, (stroke) was performed by proximal electrocoagulation of the middle cerebral artery, as described previously (Kawamata et al. (1999) Exp. Neurol. 158, 89-96; Tamura et al. (1981) J. Cereb. Blood Flow Metab. 1, 53-60). […] This technique produces a robust and reproducible infarct, or region of cell death, in the dorsolateral cerebral cortex and underlying striatum. Animals received another injection of cefazolin sodium (40 mg/kg, i.p.) immediately after surgery. They were then allowed to awaken from anesthesia.
Twenty-four hours after stroke surgery, animals received an intracisternal injection of either: (1) vehicle, (2) NSC (10^6 cells), (3) bFGF (0.5 μg), or (4) NSC+bFGF. Intracisternal injection in 50 μl total volume was done through percutaneous injection into the cisterna magna under halothane anesthesia. This same procedure was repeated two days later so that animals received treatment on days 1 and 3 following stroke. Cyclosporin, an immunosuppressant, was administered at 10 mg/kg, i.p. for the duration of the experiment.
The cerebral infarcts produced by the procedure cause sensorimotor dysfunction of the contralateral hindlimb and forelimb. For the next month following stroke, a number of neurological tests were done to assess sensorimotor function of the contralateral limbs. These tests include both the forelimb and hindlimb placing tests which test the animal's ability to place the limb on a tabletop in response to visual, tactile, proprioceptive, and whisker stimulation. […]

[2] = test system: rat stroke model (focal cerebral infarction, middle cerebral artery electrocoagulation); assay: Example 2: behavioural tests after intracerebral NSC and intracisternal bFGF in rat stroke model; format: in vivo; conditions: single administration one day after stroke
Method: In a second experiment, NSC were injected directly into the brain into tissue surrounding focal strokes. bFGF was injected intracisternally, as before. In this experiment only one administration of NSC or bFGF was performed at one day after stroke.
In this experiment, animals were handled for one week before surgery. In addition, they were trained on an additional test, the paw reaching test (see below) for 10 days before surgery. As before, they received cefazolin sodium (40 mg/kg, i.p.) before surgery. On the day of surgery, electrocoagulation of the proximal middle cerebral artery was done, as described previously (Kawamata et al. (1996) J. Cereb. Blood Flow Metab. 16, 542-547; Kawamata et al. (1997) Proc. Nat. Acad Sci. 94, 8179-8184; Kawamata et al. (1999) Exp. Neurol. 158, 89-96). They received another injection of cefazolin sodium, 40 mg/kg, i.p. after surgery.
At one day after stroke, animals received either: (1) vehicle injection into periinfarct tissue, and vehicle injection into the cisterna magna, (2) NSC (10^6 cells) into periinfarct tissue and vehicle into the cisterna magna, (3) vehicle into periinfarct tissue and bFGF (0.5 μg) into the cisterna magna or (4) the combination NSC (10^6 cells) into periinfarct tissue and bFGF (0.5 μg) into the cisterna magna.
These injections were done with a volume of 25 μl each under 2% halothane anesthesia. […]

animal models of stroke = conditions: administered starting a day or more after stroke; cited from earlier work
rat stroke model = conditions: BDNF administered conjointly with bone marrow cells; cited from earlier work

| Molecule | recovery on limb placing tests (forelimb and hindlimb) ([1]; intracisternal on days 1 and 3 after stroke, NSC 10^6 cells, bFGF 0.5 μg, compared to placebo, FIGS. 1A-1B) | body swing test ([1]; intracisternal on days 1 and 3 after stroke, compared to placebo, FIG. 1C) | sensorimotor recovery of the contralateral limbs (summary) ([1]; intracisternal starting one day after stroke) | behavioral outcome overall (summary of tests) [2] | recovery on forelimb and hindlimb placing tests ([2]; NSC 10^6 cells periinfarct, bFGF 0.5 μg cisterna magna, compared to placebo, FIGS. 2A-2B) | recovery on tests of sensorimotor function of the impaired limbs (animal models of stroke) | recovery in a rat stroke model (rat stroke model) |
| --- | --- | --- | --- | --- | --- | --- | --- |
| bFGF: basic fibroblast growth factor, a protein that supports survival and axonal outgrowth from neurons | significantly enhanced recovery compared to placebo | No differences | significantly enhance sensorimotor recovery | improved behavioral outcome on some tests | superiority in recovery | recover more quickly and to a greater extent | – |
| B1 | – | – | – | – | – | – | improve recovery |
